{"source": "patent US20090143279A1", "about": "(priority 2007, published 2009)"}
{"test_system": "nuOXPHOS transcripts", "type": "cell-based, mouse", "details": "composite Z-score vs DMSO; Conc 20 μM"}
{"smiles": "CC(=O)c1cc(CC=C(C)C)c(O)c(CC=C(C)C)c1", "note": "[3,5-diprenyl-4-hydroxyacetophenone]", "nucOX": "−0.036"}
{"smiles": "CO/N=C(\\C(=O)N[C@@H]1C(=O)N2C(C(=O)O)=C(COC(C)=O)CS[C@H]12)c1csc(N)n1", "note": "[cefotaxime]", "nucOX": "−0.450"}
{"smiles": "O=c1c(-c2cc(O)c(O)c(O)c2)coc2cc(O)c(O)c(O)c12", "note": "[irigenol]", "nucOX": "−0.838"}
{"smiles": "Cc1cc(O)c2c(c1O)C(=O)c1c(O)cc(C)c(O)c1C2=O", "note": "[1,4,5,8-tetrahydroxy-2,6-dimethylanthroquinone, reference compound]", "nucOX": "−1.178"}
{"test_system": "nuOXPHOS transcripts", "type": "cell-based, mouse", "details": "composite Z-score vs mock-treated (DMSO) wells; Conc 20 μM"}
{"smiles": "C=C1C2CC[C@@]3(C)[C@H](c4ccoc4)OC(=O)C[C@]13O[C@H]1CC(=O)C(C)(C)[C@H](C(O)C(=O)OC)[C@@]21C", "note": "(some centres unmarked) [6-hydroxyangolensic acid methyl ester]", "nucOX": "−1.425"}
{"test_system": "mtOXPHOS transcripts", "type": "cell-based, mouse", "details": "composite Z-score vs DMSO; Conc 20 μM"}
{"smiles": "CC(=O)c1cc(CC=C(C)C)c(O)c(CC=C(C)C)c1", "note": "[3,5-diprenyl-4-hydroxyacetophenone]", "mitoOX": 0.538}
{"smiles": "CO/N=C(\\C(=O)N[C@@H]1C(=O)N2C(C(=O)O)=C(COC(C)=O)CS[C@H]12)c1csc(N)n1", "note": "[cefotaxime]", "mitoOX": "−0.214"}
{"smiles": "O=c1c(-c2cc(O)c(O)c(O)c2)coc2cc(O)c(O)c(O)c12", "note": "[irigenol]", "mitoOX": "−1.938"}
{"smiles": "Cc1cc(O)c2c(c1O)C(=O)c1c(O)cc(C)c(O)c1C2=O", "note": "[1,4,5,8-tetrahydroxy-2,6-dimethylanthroquinone, reference compound]", "mitoOX": "−0.739"}
{"test_system": "mtOXPHOS transcripts", "type": "cell-based, mouse", "details": "composite Z-score vs mock-treated (DMSO) wells; Conc 20 μM"}
{"smiles": "C=C1C2CC[C@@]3(C)[C@H](c4ccoc4)OC(=O)C[C@]13O[C@H]1CC(=O)C(C)(C)[C@H](C(O)C(=O)OC)[C@@]21C", "note": "(some centres unmarked) [6-hydroxyangolensic acid methyl ester]", "mitoOX": "−1.206"}
{"test_system": "reactive oxygen species", "type": "cell-based, mouse", "details": "Table 4; C2C12 myotubes, 48 h, composite Z-score"}
{"smiles": "Cc1cc(O)c2c(c1O)C(=O)c1c(O)cc(C)c(O)c1C2=O", "note": "[1,4,5,8-tetrahydroxy-2,6-dimethylanthroquinone, reference compound]", "ROS": 0.772}
{"test_system": "reactive oxygen species", "type": "cell-based, mouse", "details": "composite Z-score vs DMSO; Conc 20 μM"}
{"smiles": "CC(=O)c1cc(CC=C(C)C)c(O)c(CC=C(C)C)c1", "note": "[3,5-diprenyl-4-hydroxyacetophenone]", "ROS": 1.014}
{"smiles": "CO/N=C(\\C(=O)N[C@@H]1C(=O)N2C(C(=O)O)=C(COC(C)=O)CS[C@H]12)c1csc(N)n1", "note": "[cefotaxime]", "ROS": 1.000}
{"smiles": "O=c1c(-c2cc(O)c(O)c(O)c2)coc2cc(O)c(O)c(O)c12", "note": "[irigenol]", "ROS": "−1.001"}
{"smiles": "Cc1cc(O)c2c(c1O)C(=O)c1c(O)cc(C)c(O)c1C2=O", "note": "[1,4,5,8-tetrahydroxy-2,6-dimethylanthroquinone, reference compound]", "ROS": 0.772}
{"test_system": "reactive oxygen species", "type": "cell-based, mouse", "details": "composite Z-score vs mock-treated (DMSO) wells; Conc 20 μM"}
{"smiles": "C=C1C2CC[C@@]3(C)[C@H](c4ccoc4)OC(=O)C[C@]13O[C@H]1CC(=O)C(C)(C)[C@H](C(O)C(=O)OC)[C@@]21C", "note": "(some centres unmarked) [6-hydroxyangolensic acid methyl ester]", "ROS": "−0.249"}
{"test_system": "OXPHOS gene expression", "type": "cell-based, mouse", "details": "composite Z-score vs DMSO; Conc 20 μM"}
{"smiles": "CC(=O)c1cc(CC=C(C)C)c(O)c(CC=C(C)C)c1", "note": "[3,5-diprenyl-4-hydroxyacetophenone]", "GE-HTS": 0.149}
{"smiles": "CO/N=C(\\C(=O)N[C@@H]1C(=O)N2C(C(=O)O)=C(COC(C)=O)CS[C@H]12)c1csc(N)n1", "note": "[cefotaxime]", "GE-HTS": "−0.379"}
{"smiles": "O=c1c(-c2cc(O)c(O)c(O)c2)coc2cc(O)c(O)c(O)c12", "note": "[irigenol]", "GE-HTS": "−1.274"}
{"smiles": "Cc1cc(O)c2c(c1O)C(=O)c1c(O)cc(C)c(O)c1C2=O", "note": "[1,4,5,8-tetrahydroxy-2,6-dimethylanthroquinone, reference compound]", "GE-HTS": "−1.123"}
{"test_system": "OXPHOS gene expression", "type": "cell-based, mouse", "details": "composite Z-score vs mock-treated (DMSO) wells; Conc 20 μM"}
{"smiles": "C=C1C2CC[C@@]3(C)[C@H](c4ccoc4)OC(=O)C[C@]13O[C@H]1CC(=O)C(C)(C)[C@H](C(O)C(=O)OC)[C@@]21C", "note": "(some centres unmarked) [6-hydroxyangolensic acid methyl ester]", "GE-HTS": "−1.426"}
{"test_system": "mitochondrial membrane potential", "type": "cell-based, mouse", "details": "Table 4; C2C12 myotubes, 48 h, JC-1, composite Z-score"}
{"smiles": "Cc1cc(O)c2c(c1O)C(=O)c1c(O)cc(C)c(O)c1C2=O", "note": "[1,4,5,8-tetrahydroxy-2,6-dimethylanthroquinone, reference compound]", "ΔΨm": "−0.662"}
{"test_system": "mitochondrial membrane potential", "type": "cell-based, mouse", "details": "composite Z-score vs DMSO; Conc 20 μM"}
{"smiles": "CC(=O)c1cc(CC=C(C)C)c(O)c(CC=C(C)C)c1", "note": "[3,5-diprenyl-4-hydroxyacetophenone]", "ΔΨm": "−0.022"}
{"smiles": "CO/N=C(\\C(=O)N[C@@H]1C(=O)N2C(C(=O)O)=C(COC(C)=O)CS[C@H]12)c1csc(N)n1", "note": "[cefotaxime]", "ΔΨm": "−0.276"}
{"smiles": "O=c1c(-c2cc(O)c(O)c(O)c2)coc2cc(O)c(O)c(O)c12", "note": "[irigenol]", "ΔΨm": "−0.374"}
{"smiles": "Cc1cc(O)c2c(c1O)C(=O)c1c(O)cc(C)c(O)c1C2=O", "note": "[1,4,5,8-tetrahydroxy-2,6-dimethylanthroquinone, reference compound]", "ΔΨm": "−0.662"}
{"test_system": "mitochondrial membrane potential", "type": "cell-based, mouse", "details": "composite Z-score vs mock-treated (DMSO) wells; Conc 20 μM"}
{"smiles": "C=C1C2CC[C@@]3(C)[C@H](c4ccoc4)OC(=O)C[C@]13O[C@H]1CC(=O)C(C)(C)[C@H](C(O)C(=O)OC)[C@@]21C", "note": "(some centres unmarked) [6-hydroxyangolensic acid methyl ester]", "ΔΨm": 0.463}
{"test_system": "C2C12 myotubes", "details": "Table 4; C2C12 myotubes, 48 h, composite Z-score"}
{"smiles": "Cc1cc(O)c2c(c1O)C(=O)c1c(O)cc(C)c(O)c1C2=O", "note": "[1,4,5,8-tetrahydroxy-2,6-dimethylanthroquinone, reference compound]", "Viability": "−0.853"}
{"test_system": "C2C12 myotubes", "details": "composite Z-score vs DMSO; Conc 20 μM"}
{"smiles": "CC(=O)c1cc(CC=C(C)C)c(O)c(CC=C(C)C)c1", "note": "[3,5-diprenyl-4-hydroxyacetophenone]", "Viability": "−0.293"}
{"smiles": "CO/N=C(\\C(=O)N[C@@H]1C(=O)N2C(C(=O)O)=C(COC(C)=O)CS[C@H]12)c1csc(N)n1", "note": "[cefotaxime]", "Viability": "−1.283"}
{"smiles": "O=c1c(-c2cc(O)c(O)c(O)c2)coc2cc(O)c(O)c(O)c12", "note": "[irigenol]", "Viability": 0.249}
{"smiles": "Cc1cc(O)c2c(c1O)C(=O)c1c(O)cc(C)c(O)c1C2=O", "note": "[1,4,5,8-tetrahydroxy-2,6-dimethylanthroquinone, reference compound]", "Viability": "−0.853"}
{"test_system": "C2C12 myotubes", "details": "composite Z-score vs mock-treated (DMSO) wells; Conc 20 μM"}
{"smiles": "C=C1C2CC[C@@]3(C)[C@H](c4ccoc4)OC(=O)C[C@]13O[C@H]1CC(=O)C(C)(C)[C@H](C(O)C(=O)OC)[C@@]21C", "note": "(some centres unmarked) [6-hydroxyangolensic acid methyl ester]", "Viability": 1.224}
{"test_system": "cellular dehydrogenase activity", "details": "Table 4; C2C12 myotubes, 48 h, composite Z-score"}
{"smiles": "Cc1cc(O)c2c(c1O)C(=O)c1c(O)cc(C)c(O)c1C2=O", "note": "[1,4,5,8-tetrahydroxy-2,6-dimethylanthroquinone, reference compound]", "MTT": "−0.344"}
{"test_system": "cellular dehydrogenase activity", "details": "composite Z-score vs DMSO; Conc 20 μM"}
{"smiles": "CC(=O)c1cc(CC=C(C)C)c(O)c(CC=C(C)C)c1", "note": "[3,5-diprenyl-4-hydroxyacetophenone]", "MTT": "−0.582"}
{"smiles": "CO/N=C(\\C(=O)N[C@@H]1C(=O)N2C(C(=O)O)=C(COC(C)=O)CS[C@H]12)c1csc(N)n1", "note": "[cefotaxime]", "MTT": "−2.276"}
{"smiles": "O=c1c(-c2cc(O)c(O)c(O)c2)coc2cc(O)c(O)c(O)c12", "note": "[irigenol]", "MTT": "−0.810"}
{"smiles": "Cc1cc(O)c2c(c1O)C(=O)c1c(O)cc(C)c(O)c1C2=O", "note": "[1,4,5,8-tetrahydroxy-2,6-dimethylanthroquinone, reference compound]", "MTT": "−0.344"}
{"test_system": "cellular dehydrogenase activity", "details": "composite Z-score vs mock-treated (DMSO) wells; Conc 20 μM"}
{"smiles": "C=C1C2CC[C@@]3(C)[C@H](c4ccoc4)OC(=O)C[C@]13O[C@H]1CC(=O)C(C)(C)[C@H](C(O)C(=O)OC)[C@@]21C", "note": "(some centres unmarked) [6-hydroxyangolensic acid methyl ester]", "MTT": "−0.490"}
{"test_system": "cytochrome c", "type": "cell-based, mouse", "details": "composite Z-score vs DMSO; Conc 20 μM"}
{"smiles": "CC(=O)c1cc(CC=C(C)C)c(O)c(CC=C(C)C)c1", "note": "[3,5-diprenyl-4-hydroxyacetophenone]", "cyt c": "−0.220"}
{"smiles": "CO/N=C(\\C(=O)N[C@@H]1C(=O)N2C(C(=O)O)=C(COC(C)=O)CS[C@H]12)c1csc(N)n1", "note": "[cefotaxime]", "cyt c": 0.366}
{"smiles": "O=c1c(-c2cc(O)c(O)c(O)c2)coc2cc(O)c(O)c(O)c12", "note": "[irigenol]", "cyt c": 0.410}
{"smiles": "Cc1cc(O)c2c(c1O)C(=O)c1c(O)cc(C)c(O)c1C2=O", "note": "[1,4,5,8-tetrahydroxy-2,6-dimethylanthroquinone, reference compound]", "cyt c": 0.005}
{"test_system": "cytochrome c", "type": "cell-based, mouse", "details": "composite Z-score vs mock-treated (DMSO) wells; Conc 20 μM"}
{"smiles": "C=C1C2CC[C@@]3(C)[C@H](c4ccoc4)OC(=O)C[C@]13O[C@H]1CC(=O)C(C)(C)[C@H](C(O)C(=O)OC)[C@@]21C", "note": "(some centres unmarked) [6-hydroxyangolensic acid methyl ester]", "cyt c": 0.817}
